Tested on: Xanthomonas maltophilia and Pseudomonas mendocina
Experiment: Sonication of Pigment Red 53.1 dispersion with biocide, bacterial contamination check
Assay type: cell-based
Text: A mixture of Pigment Red 23, available from Ciba Specialty Chemicals(UK) Ltd., 215.5 parts, Emulan OG (RTM) (35% solution in water), available from BASF, 153.7 parts, tributyl phosphate, available from Albright & Wilson, 2 parts, and water, 128.8 parts, are dispersed by re-circulation through a Bachofen KDL200 bead-mill until colouristic properties are within specification of UNISPERSE (RTM) Red RBS-PI, available from Ciba Specialty Chemicals(UK) Ltd., and adjusted to pH 8.0-8.5 with 20% sodium hydroxide solution. This material is identified as containing the Gram negative bacterium, Pseudomonas putida. 50 millilitre aliquots of this dispersion containing levels of glutaraldehyde (pentane-1,5-dialdehyde), available as the trade product Protectol GDA form BASF or Ucarcide from Union Carbide, between 0 parts per million (ppm) and 2000 ppm are sonicated using a Branson MSE sonicator with a 19 mm horn probe resonating at 20 kHz with an amplitude of 6 microns. Sonication is undertaken in a 100 millilitre glass beaker, diameter 38 mm, with magnetic flea agitator and cooled in a water/ice bath to maintain temperature at 28-32° C. Bacterial growth in each sample is assessed at 5 minute intervals by streaking each dispersion on to Nutrient Agar(NA) plates and incubating the plates for a minimum of 48 hours at 30° C. The plates are then examined for bacterial colonies and expressed according to the following notation:
A mixture of Pigment Red 53.1, available from S&D Chemicals Ltd., 37 parts, Emulan OG (35% solution), 25.9 parts, 2-ethylhexanoic acid, available from Barratt Chemicals Ltd., 3 parts tributyl phosphate, 0.3 parts, and water 31.74 parts are dispersed by a single pass through a Bachofen KDL Special beadmill containing 1.0 mm Yttrium-stabilised Zirconium Oxide beads. This material is identified as containing the Gram negative bacteria, Xanthomonas maltophilia and Pseudomonas mendocina. 50 millilitre aliquots of this dispersion are treated with pentane-1,5-dialdehyde (Ucarcide 250) and CIT/MIT mixture (Acticide LG) according to the process defined in Example 1 and each sample checked for bacterial contamination according to the following table: […]

O=CCCCC=O [glutaraldehyde, pentane-1,5-dialdehyde]
bacterial contamination (500 ppm Ucarcide 250, 3 days after sonication): +++ (heavy contamination(>10^5 cfu/ml)) | bacterial contamination (500 ppm Ucarcide 250, 7 days after sonication): +++ (heavy contamination(>10^5 cfu/ml)) | bacterial contamination (500 ppm Ucarcide 250, 14 days after sonication): +++ (heavy contamination(>10^5 cfu/ml)) | bacterial contamination (500 ppm Ucarcide 250, 28 days after sonication): +++ (heavy contamination(>10^5 cfu/ml)) | bacterial contamination (500 ppm Ucarcide 250, 90 days after sonication): +++ (heavy contamination(>10^5 cfu/ml)) | bacterial contamination (500 ppm Ucarcide 250, sonicated 0 mins.): +++ (heavy contamination(>10^5 cfu/ml)) | bacterial contamination (500 ppm Ucarcide 250, sonicated 5 mins.): +++ (heavy contamination(>10^5 cfu/ml)) | bacterial contamination (500 ppm Ucarcide 250, sonicated 10 mins.): +++ (heavy contamination(>10^5 cfu/ml)) | bacterial contamination (500 ppm Ucarcide 250, sonicated 15 mins.): +++ (heavy contamination(>10^5 cfu/ml)) | bacterial contamination (500 ppm Ucarcide 250, sonicated 20 mins.): +++ (heavy contamination(>10^5 cfu/ml)) | bacterial contamination (500 ppm Ucarcide 250, sonicated 25 mins.): +++ (heavy contamination(>10^5 cfu/ml)) | bacterial contamination (500 ppm Ucarcide 250, sonicated 30 mins.): ++ (moderate contamination(10^3-10^5 cfu/ml)) | bacterial contamination (500 ppm Ucarcide 250, sonicated 35 mins.): ++ (moderate contamination(10^3-10^5 cfu/ml)) | bacterial contamination (500 ppm Ucarcide 250, sonicated 40 mins.): ++ (moderate contamination(10^3-10^5 cfu/ml)) | bacterial contamination (500 ppm Ucarcide 250, sonicated 45 mins.): ++ (moderate contamination(10^3-10^5 cfu/ml)) | bacterial contamination (500 ppm Ucarcide 250, sonicated 50 mins.): ++ (moderate contamination(10^3-10^5 cfu/ml)) | bacterial contamination (500 ppm Ucarcide 250, sonicated 55 mins.): + (light contamination (10^0 and 10^3 cfu/ml)) | bacterial contamination (500 ppm Ucarcide 250, sonicated 60 mins.): + (light contamination (10^0 and 10^3 cfu/ml)) | bacterial contamination (750 ppm Ucarcide 250, 3 days after sonication): +++ (heavy contamination(>10^5 cfu/ml)) | bacterial contamination (750 ppm Ucarcide 250, 7 days after sonication): +++ (heavy contamination(>10^5 cfu/ml)) | bacterial contamination (750 ppm Ucarcide 250, 14 days after sonication): +++ (heavy contamination(>10^5 cfu/ml)) | bacterial contamination (750 ppm Ucarcide 250, 28 days after sonication): +++ (heavy contamination(>10^5 cfu/ml)) | bacterial contamination (750 ppm Ucarcide 250, 90 days after sonication): +++ (heavy contamination(>10^5 cfu/ml)) | bacterial contamination (750 ppm Ucarcide 250, sonicated 0 mins.): +++ (heavy contamination(>10^5 cfu/ml)) | bacterial contamination (750 ppm Ucarcide 250, sonicated 5 mins.): +++ (heavy contamination(>10^5 cfu/ml)) | bacterial contamination (750 ppm Ucarcide 250, sonicated 10 mins.): +++ (heavy contamination(>10^5 cfu/ml)) | bacterial contamination (750 ppm Ucarcide 250, sonicated 15 mins.): +++ (heavy contamination(>10^5 cfu/ml)) | bacterial contamination (750 ppm Ucarcide 250, sonicated 20 mins.): +++ (heavy contamination(>10^5 cfu/ml)) | bacterial contamination (750 ppm Ucarcide 250, sonicated 25 mins.): +++ (heavy contamination(>10^5 cfu/ml)) | bacterial contamination (750 ppm Ucarcide 250, sonicated 30 mins.): ++ (moderate contamination(10^3-10^5 cfu/ml)) | bacterial contamination (750 ppm Ucarcide 250, sonicated 35 mins.): ++ (moderate contamination(10^3-10^5 cfu/ml)) | bacterial contamination (750 ppm Ucarcide 250, sonicated 40 mins.): ++ (moderate contamination(10^3-10^5 cfu/ml)) | bacterial contamination (750 ppm Ucarcide 250, sonicated 45 mins.): ++ (moderate contamination(10^3-10^5 cfu/ml)) | bacterial contamination (750 ppm Ucarcide 250, sonicated 50 mins.): + (light contamination (10^0 and 10^3 cfu/ml)) | bacterial contamination (750 ppm Ucarcide 250, sonicated 55 mins.): + (light contamination (10^0 and 10^3 cfu/ml)) | bacterial contamination (750 ppm Ucarcide 250, sonicated 60 mins.): + (light contamination (10^0 and 10^3 cfu/ml)) | bacterial contamination (1000 ppm Ucarcide 250, 3 days after sonication): +++ (heavy contamination(>10^5 cfu/ml)) | bacterial contamination (1000 ppm Ucarcide 250, 7 days after sonication): +++ (heavy contamination(>10^5 cfu/ml)) | bacterial contamination (1000 ppm Ucarcide 250, 14 days after sonication): +++ (heavy contamination(>10^5 cfu/ml)) | bacterial contamination (1000 ppm Ucarcide 250, 28 days after sonication): +++ (heavy contamination(>10^5 cfu/ml)) | bacterial contamination (1000 ppm Ucarcide 250, 90 days after sonication): +++ (heavy contamination(>10^5 cfu/ml)) | bacterial contamination (1000 ppm Ucarcide 250, sonicated 0 mins.): +++ (heavy contamination(>10^5 cfu/ml)) | bacterial contamination (1000 ppm Ucarcide 250, sonicated 5 mins.): +++ (heavy contamination(>10^5 cfu/ml)) | bacterial contamination (1000 ppm Ucarcide 250, sonicated 10 mins.): +++ (heavy contamination(>10^5 cfu/ml)) | bacterial contamination (1000 ppm Ucarcide 250, sonicated 15 mins.): +++ (heavy contamination(>10^5 cfu/ml)) | bacterial contamination (1000 ppm Ucarcide 250, sonicated 20 mins.): ++ (moderate contamination(10^3-10^5 cfu/ml)) | bacterial contamination (1000 ppm Ucarcide 250, sonicated 25 mins.): ++ (moderate contamination(10^3-10^5 cfu/ml)) | bacterial contamination (1000 ppm Ucarcide 250, sonicated 30 mins.): + (light contamination (10^0 and 10^3 cfu/ml)) | bacterial contamination (1000 ppm Ucarcide 250, sonicated 35 mins.): + (light contamination (10^0 and 10^3 cfu/ml)) | bacterial contamination (1000 ppm Ucarcide 250, sonicated 40 mins.): + (light contamination (10^0 and 10^3 cfu/ml)) | bacterial contamination (1000 ppm Ucarcide 250, sonicated 45 mins.): + (light contamination (10^0 and 10^3 cfu/ml)) | bacterial contamination (1000 ppm Ucarcide 250, sonicated 50 mins.): + (light contamination (10^0 and 10^3 cfu/ml)) | bacterial contamination (1000 ppm Ucarcide 250, sonicated 55 mins.): + (light contamination (10^0 and 10^3 cfu/ml)) | bacterial contamination (1000 ppm Ucarcide 250, sonicated 60 mins.): + (light contamination (10^0 and 10^3 cfu/ml)) | bacterial contamination (1500 ppm Ucarcide 250, 3 days after sonication): +++ (heavy contamination(>10^5 cfu/ml)) | bacterial contamination (1500 ppm Ucarcide 250, 7 days after sonication): +++ (heavy contamination(>10^5 cfu/ml)) | bacterial contamination (1500 ppm Ucarcide 250, 14 days after sonication): +++ (heavy contamination(>10^5 cfu/ml)) | bacterial contamination (1500 ppm Ucarcide 250, 28 days after sonication): +++ (heavy contamination(>10^5 cfu/ml)) | bacterial contamination (1500 ppm Ucarcide 250, 90 days after sonication): +++ (heavy contamination(>10^5 cfu/ml)) | bacterial contamination (1500 ppm Ucarcide 250, sonicated 0 mins.): +++ (heavy contamination(>10^5 cfu/ml)) | bacterial contamination (1500 ppm Ucarcide 250, sonicated 5 mins.): +++ (heavy contamination(>10^5 cfu/ml)) | bacterial contamination (1500 ppm Ucarcide 250, sonicated 10 mins.): +++ (heavy contamination(>10^5 cfu/ml)) | bacterial contamination (1500 ppm Ucarcide 250, sonicated 15 mins.): +++ (heavy contamination(>10^5 cfu/ml)) | bacterial contamination (1500 ppm Ucarcide 250, sonicated 20 mins.): ++ (moderate contamination(10^3-10^5 cfu/ml)) | bacterial contamination (1500 ppm Ucarcide 250, sonicated 25 mins.): + (light contamination (10^0 and 10^3 cfu/ml)) | bacterial contamination (1500 ppm Ucarcide 250, sonicated 30 mins.): + (light contamination (10^0 and 10^3 cfu/ml)) | bacterial contamination (1500 ppm Ucarcide 250, sonicated 35 mins.): + (light contamination (10^0 and 10^3 cfu/ml)) | bacterial contamination (1500 ppm Ucarcide 250, sonicated 40 mins.): + (light contamination (10^0 and 10^3 cfu/ml)) | bacterial contamination (1500 ppm Ucarcide 250, sonicated 45 mins.): + (light contamination (10^0 and 10^3 cfu/ml)) | bacterial contamination (1500 ppm Ucarcide 250, sonicated 50 mins.): + (light contamination (10^0 and 10^3 cfu/ml)) | bacterial contamination (1500 ppm Ucarcide 250, sonicated 55 mins.): + (light contamination (10^0 and 10^3 cfu/ml)) | bacterial contamination (1500 ppm Ucarcide 250, sonicated 60 mins.): + (light contamination (10^0 and 10^3 cfu/ml))
